Consider two compounds from doi:10.1101/2025.01.30.635627v1 (biorxiv, 2025).

One test deals with T1, EEF1A2 (Homo sapiens, UniProt Q05639).
T1 sequence (Q05639 2-463): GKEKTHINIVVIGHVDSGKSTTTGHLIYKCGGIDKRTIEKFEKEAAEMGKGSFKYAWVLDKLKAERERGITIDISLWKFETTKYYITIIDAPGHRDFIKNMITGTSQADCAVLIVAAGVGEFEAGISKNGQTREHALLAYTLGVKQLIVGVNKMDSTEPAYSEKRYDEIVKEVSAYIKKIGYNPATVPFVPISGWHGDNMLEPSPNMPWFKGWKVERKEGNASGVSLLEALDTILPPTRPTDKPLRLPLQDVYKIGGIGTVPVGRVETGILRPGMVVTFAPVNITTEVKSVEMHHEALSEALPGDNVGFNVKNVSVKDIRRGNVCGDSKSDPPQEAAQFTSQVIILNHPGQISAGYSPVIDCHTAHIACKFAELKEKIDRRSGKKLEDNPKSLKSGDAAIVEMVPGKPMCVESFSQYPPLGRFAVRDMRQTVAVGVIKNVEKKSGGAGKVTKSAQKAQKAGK
Nature of the test: decryptC competitive reactive cysteine profiling in intact cells, LC-MS/MS. Type of test: cell-based. The following applies: covalent; C31; […] h incubation; range over MiaPaCa-2, NCI-H23 and ASPC1 cells.

In a further test the target is T2, GAK (Homo sapiens, UniProt O14976).
T2 sequence (O14976 2-1311): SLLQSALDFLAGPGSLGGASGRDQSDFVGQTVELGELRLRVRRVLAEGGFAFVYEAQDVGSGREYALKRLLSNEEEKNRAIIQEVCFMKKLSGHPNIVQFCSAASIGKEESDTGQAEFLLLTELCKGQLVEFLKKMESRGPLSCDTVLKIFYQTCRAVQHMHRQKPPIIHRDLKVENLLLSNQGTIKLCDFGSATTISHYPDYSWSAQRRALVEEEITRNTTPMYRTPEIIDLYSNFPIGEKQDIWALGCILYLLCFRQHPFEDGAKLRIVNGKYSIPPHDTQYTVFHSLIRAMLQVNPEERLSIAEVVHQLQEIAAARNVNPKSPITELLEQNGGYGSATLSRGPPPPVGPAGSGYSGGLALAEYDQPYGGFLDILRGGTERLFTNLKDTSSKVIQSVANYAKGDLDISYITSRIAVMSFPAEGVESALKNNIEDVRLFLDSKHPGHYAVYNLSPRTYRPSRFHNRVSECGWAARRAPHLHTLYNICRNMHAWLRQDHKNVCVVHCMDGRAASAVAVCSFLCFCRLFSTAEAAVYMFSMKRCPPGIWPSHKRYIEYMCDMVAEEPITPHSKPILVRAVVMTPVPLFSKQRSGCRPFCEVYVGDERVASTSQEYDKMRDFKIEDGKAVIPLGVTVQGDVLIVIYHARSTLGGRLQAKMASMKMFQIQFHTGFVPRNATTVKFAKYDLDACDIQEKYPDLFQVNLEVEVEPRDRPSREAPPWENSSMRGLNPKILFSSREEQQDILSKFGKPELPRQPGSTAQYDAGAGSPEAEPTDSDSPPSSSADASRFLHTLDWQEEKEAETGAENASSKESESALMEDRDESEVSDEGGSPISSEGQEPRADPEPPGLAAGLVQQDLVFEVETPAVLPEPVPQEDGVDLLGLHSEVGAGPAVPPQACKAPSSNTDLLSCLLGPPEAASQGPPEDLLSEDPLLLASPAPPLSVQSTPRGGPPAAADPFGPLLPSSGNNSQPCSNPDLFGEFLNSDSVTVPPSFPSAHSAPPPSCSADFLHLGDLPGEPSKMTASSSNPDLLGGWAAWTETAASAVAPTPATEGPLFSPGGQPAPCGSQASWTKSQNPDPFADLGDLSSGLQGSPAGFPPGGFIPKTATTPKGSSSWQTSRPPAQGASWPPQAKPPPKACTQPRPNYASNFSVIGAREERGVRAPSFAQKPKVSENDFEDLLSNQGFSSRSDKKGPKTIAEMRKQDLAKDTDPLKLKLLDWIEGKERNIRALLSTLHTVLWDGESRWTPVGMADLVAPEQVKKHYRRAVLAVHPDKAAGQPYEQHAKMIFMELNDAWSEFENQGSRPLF
The test can be described thus: Kinobead selectivity profiling. In kind it is biochemical. Particulars: read-out: K ^app; apparent value; off-target of ERK inhibitor.

The next test addresses AAK1 (Homo sapiens, UniProt Q2M2I8). The test can be described thus: Kinobead selectivity profiling. In kind it is biochemical. Particulars: read-out: K ^app; apparent value; off-target of ERK inhibitor.

One may read the EC50 as the concentration giving half of the maximal effect.

AAK1, sequence (Q2M2I8 whole entry): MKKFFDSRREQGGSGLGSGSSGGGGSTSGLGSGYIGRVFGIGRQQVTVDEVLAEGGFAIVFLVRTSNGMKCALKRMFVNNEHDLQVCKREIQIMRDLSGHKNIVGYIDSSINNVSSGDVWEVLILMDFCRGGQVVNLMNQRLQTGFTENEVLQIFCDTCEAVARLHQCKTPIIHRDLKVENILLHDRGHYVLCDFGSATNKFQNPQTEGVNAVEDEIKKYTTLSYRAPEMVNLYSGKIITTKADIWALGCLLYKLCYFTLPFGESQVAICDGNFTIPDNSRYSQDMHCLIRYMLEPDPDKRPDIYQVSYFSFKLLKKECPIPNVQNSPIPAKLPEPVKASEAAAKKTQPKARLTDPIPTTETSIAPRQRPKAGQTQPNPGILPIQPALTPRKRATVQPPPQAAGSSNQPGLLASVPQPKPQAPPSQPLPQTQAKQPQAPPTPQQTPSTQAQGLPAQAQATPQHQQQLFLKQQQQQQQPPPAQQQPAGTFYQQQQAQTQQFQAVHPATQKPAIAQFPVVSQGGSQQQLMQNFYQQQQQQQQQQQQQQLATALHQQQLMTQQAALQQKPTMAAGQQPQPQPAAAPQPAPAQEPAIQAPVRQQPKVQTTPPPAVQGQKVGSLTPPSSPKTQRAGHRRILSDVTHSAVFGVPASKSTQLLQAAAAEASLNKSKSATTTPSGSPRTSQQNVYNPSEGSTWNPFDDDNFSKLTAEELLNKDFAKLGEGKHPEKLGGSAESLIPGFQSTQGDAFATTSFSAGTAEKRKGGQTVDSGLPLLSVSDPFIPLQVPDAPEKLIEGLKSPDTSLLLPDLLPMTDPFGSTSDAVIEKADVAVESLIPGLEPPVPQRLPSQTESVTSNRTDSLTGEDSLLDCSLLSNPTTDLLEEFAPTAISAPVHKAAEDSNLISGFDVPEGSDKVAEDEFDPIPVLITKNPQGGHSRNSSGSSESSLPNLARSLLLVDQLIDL

`C=C(F)C(=O)N1CCN(c2nc(OC[C@@H]3CCCN3C)nc3c2CCN(c2cccc4cccc(Cl)c24)C3)C[C@@H]1CC#N` [Adagrasib] registered a half-maximal effective concentration (EC50) on EEF1A2 of 1000 to 3000 nM.

In the case of `Cn1nccc1Nc1nccc(-c2cc3c(s2)C(C)(C)N(CCN2CCOCC2)C3=O)n1` [Temuterkib], the Kd on GAK worked out at 155 nM; on AAK1 it was 11 nM.
